For assay [1], the target named is T1, human recombinant α1b adrenoceptor (Homo sapiens, UniProt P35368).
T1 construct: expressed in transfected cells; host or cells: CHO cells (membranes)
T1 sequence (P35368 1-520): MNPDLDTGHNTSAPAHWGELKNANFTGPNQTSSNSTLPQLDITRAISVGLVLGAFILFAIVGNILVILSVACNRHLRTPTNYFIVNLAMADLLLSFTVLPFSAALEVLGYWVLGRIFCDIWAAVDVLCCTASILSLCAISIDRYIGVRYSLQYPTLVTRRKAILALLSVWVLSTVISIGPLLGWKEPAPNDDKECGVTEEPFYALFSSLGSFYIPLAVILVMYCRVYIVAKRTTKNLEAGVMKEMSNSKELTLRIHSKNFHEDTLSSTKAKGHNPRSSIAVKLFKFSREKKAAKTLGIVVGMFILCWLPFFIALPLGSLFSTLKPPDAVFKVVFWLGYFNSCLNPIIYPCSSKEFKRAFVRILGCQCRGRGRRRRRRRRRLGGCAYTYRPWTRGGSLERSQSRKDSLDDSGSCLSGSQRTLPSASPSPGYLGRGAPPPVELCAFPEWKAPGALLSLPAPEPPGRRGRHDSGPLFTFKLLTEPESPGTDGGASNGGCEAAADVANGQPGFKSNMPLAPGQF
In words: Radioligand binding ([3H]prazosin) on membranes of CHO cells expressing cloned α1b adrenoceptor. Particulars: human cloned receptor, CHO cell membranes, 0.2 nM [3H]prazosin; read-out: Affinity (Ki) α1b. As to the method:
(§1) The determination of affinity for cloned subtypes of human α1 adrenergic receptors was performed in membranes from CHO cells (chinese hamster ovary cells) transfected by electroporation with DNA expressing the genes encoding each α1-adrenoceptor subtype, namely α1a, α1b and α1d.. Cloning and stable expression of the human α1-adrenoceptor gene were performed as previously described (Testa et al., Pharmacol. Comm. 6, 79-86 (1995)). CHO cell membranes were incubated in […] Tris pH 7.4 with 0.2 nM [^3H]prazosin, in a final volume of 1.02 ml for 30 minutes at 25°C, in the absence or presence of competing drugs (1 pM-10 µM). Non-specific binding was determined in the presence of 10 µM phentolamine. Incubation was stopped by addition of ice-cold Tris buffer and rapid filtration through 0.2% polyethyleneimine pretreated Schleicher & Schuell GF52 filters. Genomic clone G-21 coding for the human 5-HT1A-serotoninergic receptor was stably transfected in a human cell line (HeLa) (Fargin et al., J. Biol. Chem. 284, 14848-14852 (1989)). The HeLa cells were grown as monolayers in Dulbecco's modified Eagle's medium (DMEM), supplemented with 10% foetal calf serum and gentamicin (100 µg/ml), 5% CO2, at 37°C. The cells were detached from the growth flask at 95% confluence by a cell scraper and were lysed in ice-cold 5 mM Tris and 5-mM EDTA buffer (pH 7.4). The homogenates were centrifuged at 40000 x g x 20 minutes and the membranes were re-suspended in a small volume of ice-cold 5 mM Tris and 5-mM EDTA buffer (pH 7.4) and immediately frozen and stored at -70°C until use. On the experiment day, the cell membranes were re-suspended in a buffer containing 50 mM Tris (pH 7.4), 2.5 mM MgCl2, 10 µM pargyline (Fargin et al., Nature 335, 358-360 (1988)). […] The incubation was stopped by addition of ice-cold Tris buffer and rapid filtration through 0.2%-polyethyleneimine-pretreated Schleicher & Schuell filters. The inhibition of specific binding of the radioligands by the drugs was analysed to estimate the IC50 value by using the non-linear curve-fitting programme Allfit (De Lean et al., Am. J. Physiol. 235, E97-E102 (1978)). The IC50 value was converted to an affinity constant (Ki) by the equation of Cheng & Prusoff (Biochem. Pharmacol. 22, 3099-3108 (1973)). Data were expressed as mean of Ki.

In assay [2] the target is T2, human 5-HT1A-serotoninergic receptor (Homo sapiens, UniProt P08908).
T2 construct: expressed in transfected cells; host or cells: HeLa cells (membranes)
T2 sequence (P08908 1-422): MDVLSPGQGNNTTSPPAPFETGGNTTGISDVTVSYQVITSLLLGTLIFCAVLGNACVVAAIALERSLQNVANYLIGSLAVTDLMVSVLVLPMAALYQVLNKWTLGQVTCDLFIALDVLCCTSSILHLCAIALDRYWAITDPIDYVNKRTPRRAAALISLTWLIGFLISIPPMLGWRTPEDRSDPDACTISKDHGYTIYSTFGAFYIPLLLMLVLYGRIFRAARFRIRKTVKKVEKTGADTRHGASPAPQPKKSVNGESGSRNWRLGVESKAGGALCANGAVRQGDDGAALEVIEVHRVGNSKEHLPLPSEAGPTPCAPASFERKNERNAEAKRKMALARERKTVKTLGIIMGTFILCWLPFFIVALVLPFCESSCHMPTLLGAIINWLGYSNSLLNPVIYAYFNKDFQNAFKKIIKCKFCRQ
In words: Radioligand binding ([3H]8-OH-DPAT) on membranes of HeLa cells expressing cloned 5-HT1A receptor. Particulars: human cloned receptor, HeLa cell membranes, 1.2 nM [3H]8-OH-DPAT; read-out: Affinity (Ki) 5-HT1A. As to the method:
as §1

A further assay concerns the target T3, Guinea pig spleen α1B (Cavia porcellus, UniProt H0WBQ9).
T3 construct: from tissue; host or cells: guinea pig spleen, longitudinal strips
T3 sequence (H0WBQ9 1-520): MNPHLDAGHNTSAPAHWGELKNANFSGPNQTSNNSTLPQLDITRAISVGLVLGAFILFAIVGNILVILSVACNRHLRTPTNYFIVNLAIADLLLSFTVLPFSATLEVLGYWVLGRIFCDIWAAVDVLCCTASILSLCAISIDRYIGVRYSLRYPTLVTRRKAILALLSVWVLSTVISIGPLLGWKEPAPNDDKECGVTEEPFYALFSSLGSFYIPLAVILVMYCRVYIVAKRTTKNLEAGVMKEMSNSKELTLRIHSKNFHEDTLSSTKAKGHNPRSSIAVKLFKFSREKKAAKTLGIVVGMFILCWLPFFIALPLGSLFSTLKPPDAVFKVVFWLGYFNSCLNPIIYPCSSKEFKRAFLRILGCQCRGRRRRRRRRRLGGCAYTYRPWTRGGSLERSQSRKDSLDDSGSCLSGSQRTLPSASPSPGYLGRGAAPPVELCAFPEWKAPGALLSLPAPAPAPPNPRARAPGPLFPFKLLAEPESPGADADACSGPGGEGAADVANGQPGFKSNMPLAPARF
The note with it: footnote a: Eltze M., Eur. J. Pharmacol. 260, 211-220 (1994); cited from earlier work.

pKi: −log10 of the molar value.

Usually pKi stands for the negative decadic logarithm of the Ki, by convention in mol/L. For `COc1ccccc1N1CCN(CCN2C(=O)CC3(CCCC3)CC2=O)CC1` [BMY-7378, reference compound], the results for the pKi in assay [1] and in assay [2] were 7.16 and 9.03, respectively. Further, the “Functional affinity pKB, Guinea pig spleen α1B” value on Guinea pig spleen α1B is on record as 6.55^a.

(Values after EP1200406B1, “CYCLIC AMIDES AND IMIDES HAVING SELECTIVE ANTAGONIST ACTIVITY AT ALPHA-1D ADRENERGIC RECEPTOR” (RECORDATI INDUSTRIA CHIMICA E FARMACEUTICA S.p.a., priority 1999, dated 2001).)
